Laboratory results taken from US11679097B2, “Combination product containing limonoid compound and biguanide compound” (ZHEJIANG YANGSHENGTANG INSTITUTE OF NATURAL MEDICATION CO., …, priority 2017, dated 2023).

Legend:
Format in all cases: in vivo
db/db mice [1] = experiment: Blood glucose and leptin in mouse model of type II diabetes (Example 2); conditions: single administration 0.04 g/kg per day by gavage, two weeks; for Leptin: serum, Elisa; for Blood glucose value: 1 h after last administration
Excerpt: Effects of a Limonoid Compound, Metformin or a Combination Thereof on Blood Glucose and Leptin in a Mouse Model of Type II Diabetes In the present example, db/db mice (line name BKS.Cg-Dock7^m+/+ Lepr^db/Nju) were used to perform hypoglycemic efficacy evaluation test of animals (blood glucose level and leptin). […] Conditions for experimental feeding: as type II diabetes model mice, 6-week-old SPF-grade db/db mice were purchased from the Nanjing Model Biology Institute, and subjected to experimental feeding after 7 days of preliminary feeding. […] The experimental feed was mouse growth-stable feed (GB […]), and the daily feeding and management of the animals were under the responsibility of the animal security department, which provided the animals with sufficient padding and fresh drinking water daily. Experimental grouping: male db/db mice (20±2 g) were selected, and 18 male mice in each group were tested. […] Gavage doses: obacunone at a dose of 0.04 g/kg was gavaged per day for the obacunone group, isoobacunoic acid at a dose of 0.04 g/kg was gavaged per day for the isoobacunoic acid group, obacunone 17-β-D-glucopynoside at a dose of 0.04 g/kg was gavaged per day for the obacunone 17-β-D-glucopynoside group, metformin at a dose of 0.04 g/kg was gavaged per day for the metformin group, obacunone at a dose of 0.02 g/kg and metformin at a dose of 0.02 g/kg were simultaneously gavaged per day for the obacunone/metformin combination group, isoobacunoic acid at a dose of 0.02 g/kg and metformin at a dose of 0.02 g/kg were simultaneously gavaged per day for the isoobacunoic acid/metformin combination group, obacunone 17-β-D-glucopynoside at a dose of 0.02 g/kg and metformin at a dose of 0.02 g/kg were simultaneously gavaged per day for the obacunone 17-β-D-glucopynoside/metformin combination group, the gavage volume was 10 mL/kg, and the normal group and the model group were administrated with 10 mL/kg of distilled water. […] The data were expressed as mean and standard deviation. The data before and after were analyzed by t-test, and P<0.05 was considered statistically significant.

STZ mice = experiment: Blood glucose in mouse pancreatic islet β-cell injury model (Example 1); conditions: STZ ICR mice; single administration 0.02 g/kg per day by gavage, two weeks; 1 h after last administration
Excerpt: Effects of a Limonoid Compound, Metformin or a Combination Thereof on Blood Glucose in a Mouse Pancreatic Islet β-Cell Injury Model In this example, a mouse pancreatic islet β-cell injury model was established by modeling ICR mice with streptozotocin (STZ) (referred to the prior art literature: Li Nan et al., Protective effect of pine pollen on kidney damage in diabetic nephropathy mice, Science and Technology Review, 2014, 32 (4/5): 95-99), and used to complete the evaluation of hypoglycemic effect in animals (this model could simulate pancreatic islet β-cell damage state of type I and type II diabetics). […] Conditions of experimental feeding: ICR mice (20±2 g), aged 6 weeks, purchased from Zhejiang Academy of Medical Sciences, and subjected to experimental feeding after 7 days of preliminary feeding. […] The experimental feed was mouse growth-stable feed (GB […]), and the daily feeding and management of the animals were under the responsibility of the animal security department, which provided the animals with sufficient padding and fresh drinking water daily. Experimental grouping: 15 male mice were randomly selected as the normal control group. […] Gavage doses: the gavage dose was 0.02 g/kg per day for the limonin group, the gavage dose was 0.02 g/kg per day for the isolimonic acid group, the gavage dose was 0.02 g/kg per day for the limonin 17-β-D-glucopyranoside group, the gavage dose of metformin was 0.02 g/kg per day for the metformin group, limonin at a dose of 0.01 g/kg and metformin at a dose of 0.01 g/kg were simultaneously gavaged per day for the limonin/metformin combination group, isolimonic acid at a dose of 0.01 g/kg and metformin at a dose of 0.01 g/kg were simultaneously gavaged per day for the isolimonic acid/metformin combination group, limonin 17-β-D-glucopyranoside at a dose of 0.01 g/kg and metformin at a dose of 0.01 g/kg were simultaneously gavaged per day for the limonin 17-β-D-glucopyranoside/metformin combination group, isolimonic acid 17-β-D-glucopyranoside at a dose of 0.01 g/kg and metformin at a dose of 0.01 g/kg were simultaneously gavaged per day for the isolimonic acid 17-β-D-glucopyranoside/metformin combination group, the gavage volume was 10 mL/kg, and the normal group and the model group were administrated with 10 mL/kg of distilled water. […] SPSS 16.0 software was used for statistical analysis. The data were expressed as mean and standard deviation. The data before and after were analyzed by t-test, and P<0.05 was considered statistically significant.

db/db mice [2] = experiment: Blood glucose and insulin in mouse model of type II diabetes (Example 4); conditions: single administration 0.2 g/kg per day by gavage, two weeks; for Insulin: serum, Elisa
Excerpt: Effects of a Limonoid Compound, Metformin or a Combination Thereof on Blood Glucose and Insulin in a Mouse Model of Type II Diabetes
In the present embodiment, the limonoid compound selected nomilin, deacetylnomilin, nomilin acid, deactylnomilin 17-β-D-glucopyranoside, and a nomilin single administration group, deacetylnomilin single administration group, nomilin acid single administered group, deactylnomilin 17-β-D-glucopyranoside single administration group, and combination thereof with metformin administration groups were set, respectively.
Conditions for experimental feeding: as type II diabetes model mice, 6-week-old SPF-grade db/db mice were purchased from the Nanjing Model Biology Institute, and subjected to experimental feeding after 7 days of preliminary feeding. It should be noted that the conditions for raising the mice were as follows: the temperature was 23±1° C., the humidity was 55±10%, the lights were turned on between 7 am and 7 pm (the lights were turned off at other time), and the mice were allowed to access to water and feed freely. The experimental feed was mouse growth-stable feed (GB M2118), and the daily feeding and management of the animals were under the responsibility of the animal security department, which provided the animals with sufficient padding and fresh drinking water daily.
Experimental grouping: male db/db mice (20±2 g) were selected, 18 male mice in each group were tested, and drinking bottles were sterilized weekly. The experimental groups included the normal control group (db/m, n=18), the model group (db/db, n=18), the nomilin group (db/db, n=18), the deacetylnomilin group (db/db, n=18), the nomilin acid group (db/db, n=18), the deactylnomilin 17-β-D-glucopyranoside group (db/db, n=18), the metformin group (db/db, n=18), the nomilin/metformin combination group (db/db, n=18), the deacetylnomilin/metformin combination group (db/db, n=18), the nomilin acid/metformin combination group (db/db, n=18), the deactylnomilin 17-β-D-glucopyranoside/combination group (db/db, n=18).
Gavage doses: nomilin at a dose of 0.2 g/kg was gavaged per day for the nomilin group, deacetylnomilin at a dose of 0.2 g/kg was gavaged per day for the deacetylnomilin group, nomilin acid at a dose of 0.2 g/kg was gavaged per day for the nomilin acid group, deacetylnomilin […] at a dose of 0.2 g/kg was gavaged per day for the deactylnomilin glucopyranoside group, metformin at a dose of 0.2 g/kg was gavaged per day for the metformin group, nomilin at a dose of 0.1 g/kg and metformin at a dose of 0.1 g/kg were simultaneously gavaged per day for the nomilin/metformin combination group, nomilin acid at a dose of 0.1 g/kg and metformin at a dose of 0.1 g/kg were simultaneously gavaged per day for the nomilin acid/metformin combination group, deacetylnomilin at a dose of 0.1 g/kg and metformin at a dose of 0.1 g/kg were simultaneously gavaged per day for the deacetylnomilin/metformin combination group, deactylnomilin 17-β-D-glucopyranoside at a dose of 0.1 g/kg and metformin at a dose of 0.1 g/kg were simultaneously gavaged per day for the deactylnomilin 17-β-D-glucopyranoside/metformin combination group, the gavage volume was 10 mL/kg, and the normal group and the model group were administrated with 10 mL/kg of distilled water. Two weeks later, the blood glucose values were measured by tail trimming method (Johnson's blood glucose meter) 1 h after the last administration, and serum insulin levels were measured with blood collected from orbital cavity by enzyme-linked immunosorbent assay (Elisa), and the average of each group was obtained. SPSS 16.0 software was used for statistical analysis. The data were expressed as mean and standard deviation. The data before and after were analyzed by t-test, and P<0.05 was considered statistically significant.

ICR mice = experiment: Body weight, triglycerides and total cholesterol in obesity mouse model (Example 6); conditions: high-fat feed ICR mice, single administration 0.1 g/kg per day by gavage, two weeks
Excerpt: Effects of a Limonoid Compound, Metformin or a Combination Thereof on Body Weight, Triglycerides, and Total Cholesterol in an Obesity Mouse Model
In this example, ICR mice were used to complete the experiment for evaluation of lipid lowering and weight loss in animals (body weight, serum cholesterol, and serum triglycerides).
In this example, the limonoid compound was nomilin, and a metformin single administration group, nomilin single administration group, and metformin/nomilin combination administration groups (dose A and B groups) were set, respectively.
Conditions of experimental feeding: ICR mice, purchased from the Animal Center of Zhejiang Academy of Medical Sciences, half male and half female, body weight (20±2 g), fed with basic feed provided by the Animal Center of Zhejiang Medical Academy. It should be noted that the conditions for raising the mice were as follows: the temperature was 23±1° C., the humidity was 55±10%, the lights were turned on between 7 am and 7 pm (the lights were turned off at other time), and the mice were allowed to access to water and feed freely. The daily feeding and management of the animals were under the responsibility of the animal security department, which provided the animals with sufficient padding and fresh drinking water daily.
The ICR mice were randomly divided into the normal group and the high-fat feed group, according to body weight. The normal group was fed with ordinary feed from the beginning to the end of the experiment.
Gavage dose: nomilin at a dose of 0.1 g/kg was gavaged per day for the nomilin group, metformin at a dose of 0.1 g/kg was gavaged per day for the metformin group, nomilin at a dose of 0.05 g/kg and metformin at a dose of 0.05 g/kg were simultaneously gavaged per day for the combination dose group A, nomilin at a dose of 0.1 g/kg and metformin at a dose of 0.1 g/kg were simultaneously gavaged per day for the combination dose group B, the gavage volume was 10 mL/kg, and the normal group and the model group were administrated with 10 mL/kg of distilled water. Two weeks later, the mice were weighed, blood sampled from orbital cavity, measured to determine serum total cholesterol and triglyceride levels, and the average values of each group were obtained. SPSS 16.0 software was used for statistical analysis. The data were expressed as mean and standard deviation. The data before and after were analyzed by t-test, and P<0.05 was considered statistically significant.

Compound	Leptin (db/db mice [1]) [pg/mL]	Blood glucose value (db/db mice [1]) [mmol/L]	Blood glucose value (STZ mice) [mmol/L]	further results
obacunone 17-β-D-glucopynoside	28.55 ± 4.00	13.67 ± 2.9		
isolimonic acid			18.2 ± 3.1	
CC1(C)OC(=O)C=C[C@]2(C)[C@H]3CC[C@@]4(C)[C@H](c5ccoc5)OC(=O)[C@H]5O[C@]54[C@]3(C)C(=O)C[C@@H]12 [Obacunone, obacunone]	25.99 ± 3.92	12.71 ± 2.8		
CC1(C)O[C@@H](CC(=O)O)[C@]2(C)[C@H]3CC[C@@]4(C)[C@H](c5ccoc5)OC(=O)[C@H]5O[C@]54[C@]3(C)C(=O)C[C@@H]12 [Isoobacunoic acid, isoobacunoic acid]	27.68 ± 3.25	14.66 ± 3.1		
isolimonic acid 17-β-D-glucopyranoside			17.9 ± 2.8	
CC1(C)O[C@H]2CC(=O)OC[C@]23[C@H]2CC[C@@]4(C)[C@H](c5ccoc5)OC(=O)[C@H]5O[C@]54[C@]2(C)C(=O)C[C@@H]13 [Limonin, limonin]			19.5 ± 1.8	
nomilin acid				Blood glucose value (db/db mice [2]; 1 h after last administration): 11.0 ± 4.1 mmol/L
CC1(C)O[C@H]2CC(=O)OC[C@]23[C@H]2CC[C@@](C)([C@@H](O[C@@H]4O[C@H](CO)[C@@H](O)[C@H](O)[C@H]4O)c4ccoc4)[C@@]4(O[C@@H]4C(=O)O)[C@]2(C)C(=O)C[C@@H]13 [Limonin 17-β-D-glucopyranoside, limonin 17-β-D-glucopyranoside]			18.9 ± 2.2	
CC1(C)OC(=O)C[C@H](O)[C@]2(C)[C@H]3CC[C@@]4(C)[C@H](c5ccoc5)OC(=O)[C@H]5O[C@]54[C@]3(C)C(=O)C[C@@H]12 [deacetylnomilin]				Insulin (db/db mice [2]): 8.59 ± 2.61 pg/mL
CC(=O)O[C@H]1CC(=O)OC(C)(C)[C@@H]2CC(=O)[C@]3(C)[C@H](CC[C@@]4(C)[C@H](c5ccoc5)OC(=O)[C@H]5O[C@]543)[C@@]12C [Nomilin, nomilin]				Insulin (db/db mice [2]): 8.82 ± 3.42 pg/mL; Body weight gaining rate (ICR mice): 6.17%; Total cholesterol (ICR mice; serum): 3.09 ± 0.16 mmol/L; Triglycerides (ICR mice; serum): 1.08 ± 0.33 mmol/L
